Patent US20080009418A1, “Selective Inhibitors” (Alchemia LTD., priority 2004, published 2008)

Experiments:
Human δ-opioid (DOP) = biological target: T1, Human δ-opioid (DOP) (Homo sapiens, UniProt P41143); assay: Radioligand binding, human δ-opioid (DOP) membranes, FlashPlate, [3H]-Bremazocine; conditions: compound at 10 μM; [3H]-Bremazocine
T1 construct: purchased Perkin Elmer Biosignal
Procedure, shortened: (§1)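 Cloned human receptor membranes were coated onto FlashPlate wells and incubated with radioligand and compound (added from a 0.5 mM DMSO daughter plate) for 1 hour at room temperature in the dark. Scintillation counting gave percent inhibition, with DMSO defining total and reference ligand defining non-specific binding.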

[1] = biological target: T2, Human neuropeptide Y (NPY-Y1) (Homo sapiens, UniProt P25929); assay: Radioligand binding, human neuropeptide Y NPY-Y1 membranes, FlashPlate, [125I]-PYY; conditions: compound at 10 μM; [125I]-PYY
T2 construct: purchased Perkin Elmer Biosignal
T2 sequence (P25929 1-384): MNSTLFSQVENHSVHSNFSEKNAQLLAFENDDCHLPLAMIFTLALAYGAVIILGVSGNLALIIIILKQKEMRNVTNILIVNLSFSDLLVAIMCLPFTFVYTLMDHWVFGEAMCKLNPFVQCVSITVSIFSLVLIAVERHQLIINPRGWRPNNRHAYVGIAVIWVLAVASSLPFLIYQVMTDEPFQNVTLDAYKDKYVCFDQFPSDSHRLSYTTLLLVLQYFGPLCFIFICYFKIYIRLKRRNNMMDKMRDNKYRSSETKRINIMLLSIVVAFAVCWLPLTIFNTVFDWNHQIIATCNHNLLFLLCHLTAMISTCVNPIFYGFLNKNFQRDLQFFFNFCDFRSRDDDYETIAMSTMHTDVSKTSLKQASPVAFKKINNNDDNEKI
Procedure, shortened: as §1

Human melanocortin (MC5) = biological target: T3, Human melanocortin (MC5) (Homo sapiens, UniProt P33032); assay: Radioligand binding, human melanocortin MC5 membranes, FlashPlate, [125I]-NDP-αMSH; conditions: compound at 10 μM; [125I]-NDP-αMSH
T3 construct: purchased Perkin Elmer Biosignal
T3 sequence (P33032 whole entry): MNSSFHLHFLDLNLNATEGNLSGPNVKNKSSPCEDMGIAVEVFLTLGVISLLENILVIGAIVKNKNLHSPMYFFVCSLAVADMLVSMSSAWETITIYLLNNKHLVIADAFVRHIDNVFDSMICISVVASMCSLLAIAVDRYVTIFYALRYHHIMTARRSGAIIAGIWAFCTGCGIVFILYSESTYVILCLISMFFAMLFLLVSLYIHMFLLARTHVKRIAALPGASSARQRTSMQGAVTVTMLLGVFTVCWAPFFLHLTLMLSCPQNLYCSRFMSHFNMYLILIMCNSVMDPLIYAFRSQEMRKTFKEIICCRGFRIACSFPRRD
Procedure, shortened: as §1

[2] = biological target: T4, Human melanin-concentrating hormone (MCH1) (Homo sapiens, UniProt Q99705); assay: Radioligand binding, human melanin-concentrating hormone MCH1 membranes, FlashPlate, [125I]-S36057; conditions: compound at 10 μM; [125I]-S36057
T4 construct: purchased Perkin Elmer Biosignal
T4 sequence (Q99705 whole entry): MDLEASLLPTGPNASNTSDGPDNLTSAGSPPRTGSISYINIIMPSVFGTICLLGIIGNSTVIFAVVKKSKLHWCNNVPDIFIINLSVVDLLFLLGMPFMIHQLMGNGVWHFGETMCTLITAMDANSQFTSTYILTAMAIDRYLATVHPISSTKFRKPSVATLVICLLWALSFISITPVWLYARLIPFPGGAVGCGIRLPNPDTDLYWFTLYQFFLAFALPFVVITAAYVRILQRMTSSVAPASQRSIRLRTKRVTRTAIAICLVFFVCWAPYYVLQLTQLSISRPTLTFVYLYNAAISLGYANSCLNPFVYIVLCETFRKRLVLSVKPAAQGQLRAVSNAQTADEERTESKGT
Procedure, shortened: as §1

Human neurokinin (NK1) = biological target: T5, Human neurokinin (NK1) (Homo sapiens, UniProt P25103); assay: Radioligand binding, human neurokinin NK1 membranes, filtration, [125I]-Substance P; conditions: compound at 10 μM; [125I]-Substance P
T5 construct: purchased Perkin Elmer Biosignal
T5 sequence (P25103 whole entry): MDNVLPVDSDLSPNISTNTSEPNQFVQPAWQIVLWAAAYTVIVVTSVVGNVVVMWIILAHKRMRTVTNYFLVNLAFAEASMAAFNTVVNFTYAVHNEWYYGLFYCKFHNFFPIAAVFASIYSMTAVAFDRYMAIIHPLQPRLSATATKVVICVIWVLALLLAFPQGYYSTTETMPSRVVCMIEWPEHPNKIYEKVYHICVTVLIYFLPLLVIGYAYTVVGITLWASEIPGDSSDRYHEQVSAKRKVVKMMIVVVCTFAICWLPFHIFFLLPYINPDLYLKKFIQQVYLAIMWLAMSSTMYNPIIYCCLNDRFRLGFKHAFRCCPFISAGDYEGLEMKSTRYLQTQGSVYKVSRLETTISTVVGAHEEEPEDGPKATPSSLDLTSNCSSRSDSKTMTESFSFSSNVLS
Procedure, shortened: (§2)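 Filtration binding on cloned human receptor membranes (1 Unit/well), [125I]-Substance P for NK1 and [3H]-Diprenorphine for KOP, 1 h at room temperature. Filters PEI-presoaked, washed with cold 50 mM Tris-HCl pH 7.4, counted by scintillation; percent inhibition calculated, reference ligand defining non-specific binding.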

Human Melanocortin (MC4) = biological target: T6, Human Melanocortin (MC4) (Homo sapiens, UniProt P32245); assay: Radioligand binding, human melanocortin MC4 membranes, FlashPlate, [125I]-NDP-αMSH; conditions: compound at 10 μM; [125I]-NDP-αMSH
T6 construct: purchased Perkin Elmer Biosignal
T6 sequence (P32245 whole entry): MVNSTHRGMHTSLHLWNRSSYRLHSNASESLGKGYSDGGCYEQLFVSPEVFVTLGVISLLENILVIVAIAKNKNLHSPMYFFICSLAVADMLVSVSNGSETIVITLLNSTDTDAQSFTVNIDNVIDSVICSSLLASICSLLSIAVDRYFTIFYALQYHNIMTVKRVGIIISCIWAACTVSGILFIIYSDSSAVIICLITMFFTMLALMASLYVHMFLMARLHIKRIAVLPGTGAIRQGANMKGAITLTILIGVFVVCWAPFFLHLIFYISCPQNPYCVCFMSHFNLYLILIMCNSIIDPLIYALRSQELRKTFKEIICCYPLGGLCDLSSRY
Procedure, shortened: as §1

Human opioid (ORL1) = biological target: T7, Human opioid (ORL1) (Homo sapiens, UniProt P41146); assay: Radioligand binding, human opioid ORL1 membranes, FlashPlate, [125I]-Nociceptin; conditions: compound at 10 μM; [125I]-Nociceptin
T7 construct: purchased Perkin Elmer Biosignal
T7 sequence (P41146 whole entry): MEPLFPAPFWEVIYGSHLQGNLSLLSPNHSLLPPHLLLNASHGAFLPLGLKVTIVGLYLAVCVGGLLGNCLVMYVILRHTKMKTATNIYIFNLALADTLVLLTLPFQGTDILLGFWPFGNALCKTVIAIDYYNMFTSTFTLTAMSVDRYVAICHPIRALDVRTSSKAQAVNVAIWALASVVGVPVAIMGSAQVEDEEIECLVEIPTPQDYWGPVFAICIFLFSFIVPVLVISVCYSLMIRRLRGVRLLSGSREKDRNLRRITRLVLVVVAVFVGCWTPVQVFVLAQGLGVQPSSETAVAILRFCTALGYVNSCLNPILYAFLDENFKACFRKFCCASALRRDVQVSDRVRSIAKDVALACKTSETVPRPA
Procedure, shortened: as §1

Human κ-Opioid (KOP) = biological target: T8, Human κ-Opioid (KOP) (Homo sapiens, UniProt P41145); assay: Radioligand binding, human κ-opioid (KOP) membranes, filtration, [3H]-Diprenorphine; conditions: compound at 10 μM; [3H]-Diprenorphine
T8 construct: purchased Perkin Elmer Biosignal
T8 sequence (P41145 whole entry): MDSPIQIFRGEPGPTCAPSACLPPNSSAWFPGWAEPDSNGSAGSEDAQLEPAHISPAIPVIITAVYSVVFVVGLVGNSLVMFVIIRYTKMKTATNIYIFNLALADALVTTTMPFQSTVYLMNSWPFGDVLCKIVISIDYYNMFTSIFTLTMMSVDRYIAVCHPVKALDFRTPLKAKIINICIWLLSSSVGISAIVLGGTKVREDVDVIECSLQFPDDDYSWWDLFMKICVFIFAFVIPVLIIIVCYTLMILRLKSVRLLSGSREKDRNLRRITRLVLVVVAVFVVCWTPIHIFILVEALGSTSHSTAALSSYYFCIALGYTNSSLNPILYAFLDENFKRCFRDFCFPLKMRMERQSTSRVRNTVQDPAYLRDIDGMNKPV
Procedure, shortened: as §2

Human Melanocortin (MC3) = biological target: T9, Human Melanocortin (MC3) (Homo sapiens, UniProt P41968); assay: Radioligand binding, human melanocortin MC3 membranes, FlashPlate, [125I]-NDP-αMSH; conditions: compound at 10 μM; [125I]-NDP-αMSH
T9 construct: purchased Perkin Elmer Biosignal
T9 sequence (P41968 whole entry): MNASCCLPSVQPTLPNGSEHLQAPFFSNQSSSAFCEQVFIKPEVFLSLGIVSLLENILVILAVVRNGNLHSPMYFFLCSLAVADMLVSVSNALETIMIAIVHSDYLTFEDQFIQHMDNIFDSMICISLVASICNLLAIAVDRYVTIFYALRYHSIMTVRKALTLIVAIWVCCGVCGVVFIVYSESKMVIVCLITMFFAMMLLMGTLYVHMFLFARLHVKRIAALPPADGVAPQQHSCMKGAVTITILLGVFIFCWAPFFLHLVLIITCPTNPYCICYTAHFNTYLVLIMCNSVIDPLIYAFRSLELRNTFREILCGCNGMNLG
Procedure, shortened: as §1

Mouse urotensin (mUR2) = biological target: T10, Mouse urotensin (mUR2) (Mus musculus, UniProt Q8VIH9); assay: Radioligand binding, mouse urotensin mUR2 membranes, FlashPlate, [125I]-Urotensin II; conditions: compound at 10 μM; [125I]-Urotensin II
T10 construct: purchased Perkin Elmer Biosignal
T10 sequence (Q8VIH9 1-385): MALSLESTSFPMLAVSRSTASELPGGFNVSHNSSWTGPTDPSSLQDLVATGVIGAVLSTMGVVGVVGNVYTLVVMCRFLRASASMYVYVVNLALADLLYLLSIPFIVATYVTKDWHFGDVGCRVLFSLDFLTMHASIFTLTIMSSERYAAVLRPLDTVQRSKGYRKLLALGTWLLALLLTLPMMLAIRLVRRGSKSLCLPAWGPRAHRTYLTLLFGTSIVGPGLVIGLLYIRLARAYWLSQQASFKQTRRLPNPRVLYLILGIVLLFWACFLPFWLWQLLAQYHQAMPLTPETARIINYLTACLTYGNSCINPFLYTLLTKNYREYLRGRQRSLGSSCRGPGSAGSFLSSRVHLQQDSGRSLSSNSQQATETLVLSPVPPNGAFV
Procedure, shortened: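 Cloned mouse urotensin (mUR2) receptor membranes from Perkin Elmer Biosignal were immobilized in FlashPlate microplates using a proprietary coating. Each well got 19.5 μl buffer, then 0.5 μl of DMSO, reference ligand, or compound. Adding 5 μl of [125I]-Urotensin II, diluted to 5× final concentration in binding buffer, started binding. Plates were sealed with TopSeal-A and incubated 1 hour at room temperature in the dark. Wells were counted for 30 seconds each on a TopCount after a 60-second delay, and percentage inhibition was calculated.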

Human μ-opioid (MOP) = biological target: T11, Human μ-opioid (MOP) (Homo sapiens, UniProt P35372); assay: Radioligand binding, human μ-opioid (MOP) membranes, FlashPlate, [3H]-Naloxone; conditions: compound at 10 μM; [3H]-Naloxone
T11 construct: purchased Perkin Elmer Biosignal
T11 sequence (P35372 whole entry): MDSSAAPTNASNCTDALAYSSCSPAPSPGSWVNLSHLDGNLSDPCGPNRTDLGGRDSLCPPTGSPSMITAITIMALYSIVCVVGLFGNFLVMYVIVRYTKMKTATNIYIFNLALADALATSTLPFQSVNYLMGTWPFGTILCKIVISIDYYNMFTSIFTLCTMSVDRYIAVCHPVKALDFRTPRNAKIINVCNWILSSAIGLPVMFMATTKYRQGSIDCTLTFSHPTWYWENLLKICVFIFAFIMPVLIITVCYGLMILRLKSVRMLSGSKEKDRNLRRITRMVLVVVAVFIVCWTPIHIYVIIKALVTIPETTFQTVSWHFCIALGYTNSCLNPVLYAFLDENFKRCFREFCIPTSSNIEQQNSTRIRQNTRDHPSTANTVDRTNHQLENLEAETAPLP
Procedure, shortened: as §1

T1 sequence (P41143 whole entry): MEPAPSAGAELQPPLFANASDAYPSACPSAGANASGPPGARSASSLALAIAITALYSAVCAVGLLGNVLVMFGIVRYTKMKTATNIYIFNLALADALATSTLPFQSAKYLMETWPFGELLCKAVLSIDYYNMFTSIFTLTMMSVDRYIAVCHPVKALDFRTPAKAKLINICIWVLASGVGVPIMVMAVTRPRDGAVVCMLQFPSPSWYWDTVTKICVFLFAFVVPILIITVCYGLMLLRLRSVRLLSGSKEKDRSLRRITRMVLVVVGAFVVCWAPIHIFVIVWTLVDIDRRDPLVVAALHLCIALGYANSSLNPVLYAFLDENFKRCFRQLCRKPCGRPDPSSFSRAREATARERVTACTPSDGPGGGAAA

Row | SMILES | A1: inhibition of radioligand binding, human δ-opioid (DOP) (Human δ-opioid (DOP)) | A9: inhibition of radioligand binding, human neuropeptide Y (NPY-Y1) [1] | A5: inhibition of radioligand binding, human melanocortin (MC5) (Human melanocortin (MC5)) | A6: inhibition of radioligand binding, human melanin-concentrating hormone (MCH1) [2] | A8: inhibition of radioligand binding, human neurokinin (NK1) (Human neurokinin (NK1)) | A4: inhibition of radioligand binding, human melanocortin (MC4) (Human Melanocortin (MC4)) | A10: inhibition of radioligand binding, human opioid (ORL1) (Human opioid (ORL1)) | A2: inhibition of radioligand binding, human κ-opioid (KOP) (Human κ-Opioid (KOP)) | A3: inhibition of radioligand binding, human melanocortin (MC3) (Human Melanocortin (MC3)) | A1 radioligand binding, percentage inhibition (Human δ-opioid (DOP)) | A9 radioligand binding, percentage inhibition [1] | A5 radioligand binding, percentage inhibition (Human melanocortin (MC5)) | A6 radioligand binding, percentage inhibition [2] | A8 radioligand binding, percentage inhibition (Human neurokinin (NK1)) | A4 radioligand binding, percentage inhibition (Human Melanocortin (MC4)) | A10 radioligand binding, percentage inhibition (Human opioid (ORL1)) | A2 radioligand binding, percentage inhibition (Human κ-Opioid (KOP)) | A3 radioligand binding, percentage inhibition (Human Melanocortin (MC3)) | A11 radioligand binding, percentage inhibition (Mouse urotensin (mUR2)) | A7 radioligand binding, percentage inhibition (Human μ-opioid (MOP)) | other results
1 | COC[C@H]1OC(OCc2ccc3ccccc3c2)[C@H](NC(=O)CCCN)[C@@H](OCc2ccc3ccccc3c2)[C@@H]1O (stereo partly drawn) [compound 338] | − (“−” indicates less than 50% inhibition at 10 μM) | − (“−” indicates less than 50% inhibition at 10 μM) | − (“−” indicates less than 50% inhibition at 10 μM) | − (“−” indicates less than 50% inhibition at 10 μM) | + (“+” indicates greater than 50% inhibition at 10 μM) | − (“−” indicates less than 50% inhibition at 10 μM) | − (“−” indicates less than 50% inhibition at 10 μM) | − (“−” indicates less than 50% inhibition at 10 μM) | − (“−” indicates less than 50% inhibition at 10 μM) | – | – | – | – | – | – | – | – | – | – | – | A11: inhibition of radioligand binding, mouse urotensin (mUR2) (Mouse urotensin (mUR2)): − (“−” indicates less than 50% inhibition at 10 μM); A7: inhibition of radioligand binding, human μ-opioid (MOP) (Human μ-opioid (MOP)): + (“+” indicates greater than 50% inhibition at 10 μM)
2 | COCC1OC(OCc2ccccc2)C(NC(=O)CCN)C(OCc2ccc(-c3ccccc3)cc2)C1O (stereo not drawn) [compound 184] | – | – | – | – | – | – | – | – | – | − (“−” indicates less than 50% inhibition at 10 μM) | − (“−” indicates less than 50% inhibition at 10 μM) | + (“+” indicates greater than 50% inhibition at 10 μM) | − (“−” indicates less than 50% inhibition at 10 μM) | + (“+” indicates greater than 50% inhibition at 10 μM) | − (“−” indicates less than 50% inhibition at 10 μM) | − (“−” indicates less than 50% inhibition at 10 μM) | − (“−” indicates less than 50% inhibition at 10 μM) | − (“−” indicates less than 50% inhibition at 10 μM) | − (“−” indicates less than 50% inhibition at 10 μM) | − (“−” indicates less than 50% inhibition at 10 μM) | –
3 | CO[C@H]1[C@H](O)[C@@H](COCc2cccc(O)c2)OC(OCCc2ccccc2)[C@@H]1NC(=O)CCCN (stereo partly drawn) [compound 160] | – | – | – | – | – | – | – | – | – | − (“−” indicates less than 50% inhibition at 10 μM) | − (“−” indicates less than 50% inhibition at 10 μM) | − (“−” indicates less than 50% inhibition at 10 μM) | − (“−” indicates less than 50% inhibition at 10 μM) | + (“+” indicates greater than 50% inhibition at 10 μM) | − (“−” indicates less than 50% inhibition at 10 μM) | − (“−” indicates less than 50% inhibition at 10 μM) | − (“−” indicates less than 50% inhibition at 10 μM) | − (“−” indicates less than 50% inhibition at 10 μM) | − (“−” indicates less than 50% inhibition at 10 μM) | − (“−” indicates less than 50% inhibition at 10 μM) | –
4 | COCC1OC(OCc2ccccc2)C(NC(=O)CCCN)C(OCc2ccc(-c3ccccc3)cc2)C1O (stereo not drawn) [compound 186] | – | – | – | – | – | – | – | – | – | − (“−” indicates less than 50% inhibition at 10 μM) | − (“−” indicates less than 50% inhibition at 10 μM) | + (“+” indicates greater than 50% inhibition at 10 μM) | − (“−” indicates less than 50% inhibition at 10 μM) | + (“+” indicates greater than 50% inhibition at 10 μM) | − (“−” indicates less than 50% inhibition at 10 μM) | − (“−” indicates less than 50% inhibition at 10 μM) | − (“−” indicates less than 50% inhibition at 10 μM) | − (“−” indicates less than 50% inhibition at 10 μM) | − (“−” indicates less than 50% inhibition at 10 μM) | − (“−” indicates less than 50% inhibition at 10 μM) | –
5 | CSC1OC(COCc2cccc(N)c2)C(O)C(OCc2ccc(Cl)cc2)C1NC(=O)c1c[nH]c2ccccc12 (stereo not drawn) [compound 334] | − (“−” indicates less than 50% inhibition at 10 μM) | − (“−” indicates less than 50% inhibition at 10 μM) | − (“−” indicates less than 50% inhibition at 10 μM) | − (“−” indicates less than 50% inhibition at 10 μM) | + (“+” indicates greater than 50% inhibition at 10 μM) | − (“−” indicates less than 50% inhibition at 10 μM) | − (“−” indicates less than 50% inhibition at 10 μM) | − (“−” indicates less than 50% inhibition at 10 μM) | − (“−” indicates less than 50% inhibition at 10 μM) | – | – | – | – | – | – | – | – | – | – | – | A11: inhibition of radioligand binding, mouse urotensin (mUR2) (Mouse urotensin (mUR2)): − (“−” indicates less than 50% inhibition at 10 μM); A7: inhibition of radioligand binding, human μ-opioid (MOP) (Human μ-opioid (MOP)): − (“−” indicates less than 50% inhibition at 10 μM)
6 | CO[C@H]1[C@H](O)[C@@H](COCc2ccccc2)OC(OCc2ccc(Cl)cc2)[C@@H]1NC(=O)CCCNC(=N)N (stereo partly drawn) [compound 104] | – | – | – | – | – | – | – | – | – | − (“−” indicates less than 50% inhibition at 10 μM) | − (“−” indicates less than 50% inhibition at 10 μM) | + (“+” indicates greater than 50% inhibition at 10 μM) | − (“−” indicates less than 50% inhibition at 10 μM) | + (“+” indicates greater than 50% inhibition at 10 μM) | + (“+” indicates greater than 50% inhibition at 10 μM) | − (“−” indicates less than 50% inhibition at 10 μM) | − (“−” indicates less than 50% inhibition at 10 μM) | − (“−” indicates less than 50% inhibition at 10 μM) | − (“−” indicates less than 50% inhibition at 10 μM) | + (“+” indicates greater than 50% inhibition at 10 μM) | –
